Test results reported in ChEMBL document CHEMBL1201862, “PubChem BioAssay data set” (2004).
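Cells were grown in 96-well plates and exposed to each compound for 48 hours at five concentrations; endpoints were interpolated linearly between bracketing concentrations, or set to the highest concentration if not reached. At the GI50, growth is halved.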 Calls of active or inactive are those of the source. Cut-off read from the data, not from the text of the source: active = GI50 up to about 1.1 µM and inactive = higher.

Assays:
Assay in all cases: NCI-60 cell line screen, 48 h
OVCAR-4 = system: OVCAR-4
RPMI-8226 = system: RPMI-8226
HCT-15 = system: HCT-15
HL-60 = system: HL-60
ACHN = system: ACHN
Hs-578T = system: Hs-578T
OVCAR-8 = system: OVCAR-8
MDA-N = system: MDA-N
UO-31 = system: UO-31
SW-620 = system: SW-620
EKVX = system: EKVX
SNB-19 = system: SNB-19
Malme-3M = system: Malme-3M
SK-OV-3 = system: SK-OV-3
HOP-62 = system: HOP-62
SF-268 = system: SF-268
MCF7 = system: MCF7
HCC 2998 = system: HCC 2998
NCI/ADR-RES = system: NCI/ADR-RES
MOLT-4 = system: MOLT-4

Row | Compound | GI50 (OVCAR-4) | GI50 (RPMI-8226) | GI50 (HCT-15) | GI50 (HL-60) | GI50 (ACHN) | GI50 (Hs-578T) | GI50 (OVCAR-8) | GI50 (MDA-N) | GI50 (UO-31) | GI50 (SW-620) | GI50 (EKVX) | GI50 (SNB-19) | GI50 (Malme-3M) | GI50 (SK-OV-3) | GI50 (HOP-62) | GI50 (SF-268) | GI50 (MCF7) | GI50 (HCC 2998) | GI50 (NCI/ADR-RES) | GI50 (MOLT-4)
1 | Oc1c(Cl)ccc2cccnc12 | 3.21 µM (inactive) | 2.71 µM (inactive) | 0.927 µM | 0.28 µM (active) | 3.61 µM (inactive) | 4.32 µM (inactive) | 2.63 µM (inactive) | 16.6 µM (inactive) | 3.35 µM (inactive) | 2.53 µM (inactive) | 3.43 µM (inactive) | 13.3 µM (inactive) | 8.89 µM (inactive) | 4.71 µM (inactive) | 3.75 µM (inactive) | 2.72 µM (inactive) | 1.02 µM (active) | 12.7 µM (inactive) | 0.432 µM (active) | 1.84 µM (inactive)
2 | C=C1C(=O)OC2C1CCC(C)C1(O)C=CC(=O)C21C (stereo not drawn) | 7.6 µM (inactive) | 5.43 µM (inactive) | 4.5 µM | 2.39 µM (inactive) | 5.66 µM (inactive) | > 10 µM (inactive) | 3.5 µM (inactive) | 6.85 µM (inactive) | 3.24 µM (inactive) | 3.44 µM (inactive) | > 10 µM (inactive) | > 10 µM (inactive) | > 10 µM (inactive) | > 10 µM (inactive) | > 10 µM (inactive) | > 10 µM (inactive) | > 10 µM (inactive) | > 10 µM (inactive) | 3.95 µM (inactive) | 3.1 µM (inactive)
3 | COc1cc(/C=N/N=C2NCCCN2)ccc1O | > 100 µM (inactive) | > 100 µM (inactive) | > 100 µM | > 100 µM (inactive) | > 100 µM (inactive) | > 100 µM (inactive) | > 100 µM (inactive) | > 100 µM (inactive) | > 100 µM (inactive) | > 100 µM (inactive) | > 100 µM (inactive) | > 100 µM (inactive) | 95.7 µM (inactive) | > 100 µM (inactive) | > 100 µM (inactive) | > 100 µM (inactive) | > 100 µM (inactive) | > 100 µM (inactive) | > 100 µM (inactive) | > 100 µM (inactive)
4 | Cc1cc2nc3c(C)c4ccccc4c(C)n3c2cc1C | 4.35 µM (inactive) | 3.21 µM (inactive) | 1.97 µM | 3.22 µM (inactive) | 1.67 µM (inactive) | 5.56 µM (inactive) | 1.73 µM (inactive) | 1.89 µM (inactive) |  | 2.49 µM (inactive) | 5 µM (inactive) | 4.02 µM (inactive) | 1.98 µM (inactive) | 7.06 µM (inactive) | 2.19 µM (inactive) | 3.85 µM (inactive) | 1.49 µM (inactive) | 3.33 µM (inactive) | 1.51 µM (inactive) | 2.39 µM (inactive)
5 | Cn1cc(-c2cnc(-c3cn(C)c4ccccc34)cn2)c2ccccc21 | 11.6 µM (inactive) | 4.98 µM (inactive) | 0.187 µM | 2.72 µM (inactive) | 5.83 µM (inactive) | 2.57 µM (inactive) | 4.89 µM (inactive) | 0.767 µM (active) | 4.79 µM (inactive) | 3.19 µM (inactive) | 10.1 µM (inactive) | 4.71 µM (inactive) | 5.11 µM (inactive) | 14.6 µM (inactive) | 6.59 µM (inactive) | 5.48 µM (inactive) | 0.194 µM (active) | 5.61 µM (inactive) | 2.96 µM (inactive) | 5.66 µM (inactive)
6 | COc1ccc(/C=C/c2ccnc3ccccc23)cc1OC | 12.3 µM (inactive) | 28.1 µM (inactive) | 15.2 µM | 11.3 µM (inactive) | 24.2 µM (inactive) | 18.1 µM (inactive) |  | 14.1 µM (inactive) | 0.186 µM (active) | 15.7 µM (inactive) | 14.6 µM (inactive) | 17.4 µM (inactive) | 16.9 µM (inactive) | 27.7 µM (inactive) | 15.1 µM (inactive) | 14 µM (inactive) | 6.82 µM (inactive) | 39 µM (inactive) | 14 µM (inactive) | 19.1 µM (inactive)
7 | O=C(CNC(c1ccccc1)(c1ccccc1)c1ccccc1)NC1CCCCC1NC(=O)CNC(c1ccccc1)(c1ccccc1)c1ccccc1 (stereo not drawn) | > 100 µM (inactive) | > 100 µM (inactive) | > 100 µM | > 100 µM (inactive) | > 100 µM (inactive) | 32.9 µM (inactive) | > 100 µM (inactive) | > 100 µM (inactive) | > 100 µM (inactive) | > 100 µM (inactive) | 2.99 µM (inactive) | > 100 µM (inactive) | > 100 µM (inactive) | > 100 µM (inactive) | 27.8 µM (inactive) | 24.2 µM (inactive) | > 100 µM (inactive) | > 100 µM (inactive) | > 100 µM (inactive) | > 100 µM (inactive)
8 | C[C@@]1(OC(=O)c2cc([N+](=O)[O-])cc([N+](=O)[O-])c2)C[C@@H]2CCCC[C@@H]21 | > 100 µM (inactive) | 31.6 µM (inactive) | > 100 µM | > 100 µM (inactive) | > 100 µM (inactive) | 41.8 µM (inactive) | > 100 µM (inactive) | > 100 µM (inactive) | > 100 µM (inactive) | > 100 µM (inactive) | > 100 µM (inactive) | > 100 µM (inactive) | 58.3 µM (inactive) | > 100 µM (inactive) | > 100 µM (inactive) | > 100 µM (inactive) | > 100 µM (inactive) | > 100 µM (inactive) | > 100 µM (inactive) | > 100 µM (inactive)
9 | COc1cc(-c2c(C#N)c(N)c(C#N)c3c2COc2ccccc2-3)cc(OC)c1OC | > 22.8 µM (inactive) | > 22.9 µM (inactive) | > 100 µM | > 100 µM (inactive) | 27.8 µM (inactive) | 16.4 µM (inactive) | 28.6 µM (inactive) | > 100 µM (inactive) | > 35.8 µM (inactive) | > 100 µM (inactive) | 25.6 µM (inactive) | 13.2 µM (inactive) | 20.3 µM (inactive) | 14.6 µM (inactive) | 7.5 µM (inactive) | 11.5 µM (inactive) | > 100 µM (inactive) | 16.6 µM (inactive) | 42.5 µM (inactive) | > 76.9 µM (inactive)
10 | COc1ccc(/C(=N/OCCCC(=O)O)c2cccs2)cc1 | > 100 µM (inactive) | > 100 µM (inactive) | > 100 µM | > 100 µM (inactive) | > 100 µM (inactive) | > 100 µM (inactive) | > 100 µM (inactive) | > 100 µM (inactive) | > 100 µM (inactive) | > 100 µM (inactive) | > 100 µM (inactive) | > 100 µM (inactive) | > 100 µM (inactive) | > 100 µM (inactive) | > 100 µM (inactive) | > 100 µM (inactive) | > 100 µM (inactive) | > 100 µM (inactive) | > 100 µM (inactive) | > 100 µM (inactive)
11 | O=Cc1cc2c(s1)C(=O)c1sccc1C2=O | 0.22 µM (active) | 0.309 µM (active) | 0.381 µM | 0.863 µM (active) | 0.585 µM (active) | 0.231 µM (active) | 0.338 µM (active) | 0.0484 µM (active) | 0.411 µM (active) | 0.257 µM (active) | 1.61 µM (inactive) | 0.366 µM (active) | 0.368 µM (active) | 2.15 µM (inactive) | 1.82 µM (inactive) | 0.247 µM (active) | 0.564 µM (active) | 1.56 µM (inactive) | 0.188 µM (active) | 1.23 µM (inactive)
12 | CCOC(=O)C(Cc1ccc(N(CCCl)CCCl)cc1)NC(=O)C(Cc1ccccc1)NC(C)=O (stereo not drawn) | 0.0159 µM (active) | 0.0655 µM (active) | > 0.378 µM | 0.0908 µM (active) | 0.0255 µM (active) | > 0.368 µM (active) | > 0.322 µM (active) | > 0.262 µM (active) | 0.106 µM (active) | 0.236 µM (active) | > 0.347 µM (active) | > 0.38 µM (active) | 0.0887 µM (active) | > 0.296 µM (active) | 0.275 µM (active) | 0.126 µM (active) | 0.163 µM (active) | > 1 µM (active) | > 0.33 µM (active) | 0.0581 µM (active)
13 | O=C1C(Cl)C(c2cccc(Br)c2)N1c1c(O)c(Cl)cc(Br)c1Cl (stereo not drawn) | 12.3 µM (inactive) | 14.4 µM (inactive) | 2.32 µM | 26.4 µM (inactive) | 15.2 µM (inactive) | 9.46 µM (inactive) | 30.3 µM (inactive) | 18.5 µM (inactive) | 16.8 µM (inactive) | 19.3 µM (inactive) | 17 µM (inactive) | 1.38 µM (inactive) | 19.1 µM (inactive) | 18.3 µM (inactive) | 13.8 µM (inactive) | 14.8 µM (inactive) | 12.1 µM (inactive) | 11.1 µM (inactive) | 23.8 µM (inactive) | 13 µM (inactive)
14 | CCOC(=O)C(Cc1ccc(N(CCCl)CCCl)cc1)NC(=O)C(Cc1ccccc1)NC=O (stereo not drawn) | 0.0208 µM (active) | 0.187 µM (active) | 0.29 µM | 0.0638 µM (active) | 0.00959 µM (active) | 0.388 µM (active) | 0.258 µM (active) | 0.24 µM (active) | 0.0689 µM (active) | 0.184 µM (active) | 0.332 µM (active) | 0.421 µM (active) | 0.109 µM (active) | 0.475 µM (active) | 0.274 µM (active) | 0.0968 µM (active) | 0.143 µM (active) | 0.0186 µM (active) | 0.338 µM (active) | 0.0289 µM (active)
